# Measurements as given in ChEMBL document CHEMBL1201862, “PubChem BioAssay data set” (2004).
#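 Assay format: 96-well plates, 48-hour exposure. GI50 marks 50% less growth.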 Activity calls are given as the source filed them. No stated cut-off is given here; in the data, active = GI50 up to about 1.1 µM and inactive = higher.
# Key:
# Test in all cases: NCI anticancer screen, dose series, 48 h
# Malme-3M = system: Malme-3M
# EKVX = system: EKVX
# DMS-273 = system: DMS-273
# OVCAR-5 = system: OVCAR-5
# SW-620 = system: SW-620
# CCRF-CEM = system: CCRF-CEM
# UACC-257 = system: UACC-257
# TK-10 = system: TK-10
# A549 = system: A549
# 786-0 = system: 786-0
# HCT-116 = system: HCT-116
# HCT-15 = system: HCT-15
# UO-31 = system: UO-31
# SK-MEL-5 = system: SK-MEL-5
# RXF 393 = system: RXF 393
# HOP-92 = system: HOP-92
# MOLT-4 = system: MOLT-4
# UACC-62 = system: UACC-62
# SNB-19 = system: SNB-19
# KM-20L2 = system: KM-20L2
# U-251 = system: U-251
# HT-29 = system: HT-29
# SF-295 = system: SF-295
# DLD-1 = system: DLD-1
# OVCAR-3 = system: OVCAR-3
# SF-539 = system: SF-539
# DMS-114 = system: DMS-114
# NCI-H460 = system: NCI-H460
# RXF 631 = system: RXF 631
# SF-268 = system: SF-268
# OVCAR-8 = system: OVCAR-8
# SK-MEL-2 = system: SK-MEL-2
# HOP-62 = system: HOP-62
# LXFL 529 = system: LXFL 529
# NCI-H23 = system: NCI-H23
# M14 = system: M14
# SNB-75 = system: SNB-75
# SN12C = system: SN12C
# NCI-H522 = system: NCI-H522
# KM12 = system: KM12
# COLO 205 = system: COLO 205
# RPMI-8226 = system: RPMI-8226
# M19-MEL = system: M19-MEL
# IGROV-1 = system: IGROV-1
# HL-60 = system: HL-60
# HCC 2998 = system: HCC 2998
# ACHN = system: ACHN
# XF498 = system: XF498
# SK-MEL-28 = system: SK-MEL-28
# OVCAR-4 = system: OVCAR-4
# K562 = system: K562
# SNB-78 = system: SNB-78
# LOX IMVI = system: LOX IMVI
# CAKI-1 = system: CAKI-1
# SR = system: SR
# NCI-H226 = system: NCI-H226
# A498 = system: A498
structure (smiles),measurement,setting,value
N#Cc1cccc(C2C(=O)c3ccc(C(=O)c4ccc5c(c4)C(=O)N(c4ccc(Oc6ccc(N7C(=O)c8ccc(C(=O)c9ccc%10c(c9)C(=O)N(c9cccc(C#N)c9)C%10=O)cc8C7=O)cc6)cc4)C5=O)cc3C2=O)c1 (centres undefined),GI50,Malme-3M,> 100 µM (inactive)
same,GI50,EKVX,> 100 µM (inactive)
same,GI50,DMS-273,> 100 µM (inactive)
same,GI50,OVCAR-5,> 100 µM (inactive)
same,GI50,SW-620,> 100 µM (inactive)
same,GI50,CCRF-CEM,> 100 µM (inactive)
same,GI50,UACC-257,> 100 µM (inactive)
same,GI50,TK-10,40.2 µM (inactive)
same,GI50,A549,> 100 µM (inactive)
same,GI50,786-0,> 100 µM (inactive)
same,GI50,HCT-116,> 100 µM (inactive)
same,GI50,HCT-15,> 100 µM
same,GI50,UO-31,> 100 µM (inactive)
same,GI50,SK-MEL-5,> 100 µM (inactive)
same,GI50,RXF 393,> 100 µM (inactive)
same,GI50,HOP-92,> 100 µM (inactive)
same,GI50,MOLT-4,> 100 µM (inactive)
same,GI50,UACC-62,> 100 µM (inactive)
same,GI50,SNB-19,82.2 µM (inactive)
same,GI50,KM-20L2,> 100 µM (inactive)
same,GI50,U-251,> 100 µM (inactive)
same,GI50,HT-29,> 100 µM (inactive)
same,GI50,SF-295,> 100 µM (inactive)
same,GI50,DLD-1,> 100 µM (inactive)
same,GI50,OVCAR-3,> 100 µM (inactive)
same,GI50,SF-539,> 100 µM (inactive)
same,GI50,DMS-114,> 100 µM (inactive)
same,GI50,NCI-H460,> 100 µM (inactive)
same,GI50,RXF 631,> 100 µM (inactive)
same,GI50,SF-268,> 100 µM (inactive)
same,GI50,OVCAR-8,> 100 µM (inactive)
same,GI50,SK-MEL-2,> 100 µM (inactive)
same,GI50,HOP-62,> 100 µM (inactive)
same,GI50,LXFL 529,> 100 µM (inactive)
same,GI50,NCI-H23,> 100 µM (inactive)
same,GI50,M14,> 100 µM (inactive)
same,GI50,SNB-75,> 100 µM (inactive)
same,GI50,SN12C,> 100 µM (inactive)
same,GI50,NCI-H522,> 100 µM (inactive)
same,GI50,KM12,> 100 µM (inactive)
same,GI50,COLO 205,> 100 µM (inactive)
same,GI50,RPMI-8226,> 100 µM (inactive)
same,GI50,M19-MEL,> 100 µM (inactive)
same,GI50,IGROV-1,> 100 µM (inactive)
same,GI50,HL-60,> 100 µM (inactive)
same,GI50,HCC 2998,> 100 µM (inactive)
same,GI50,ACHN,> 100 µM (inactive)
same,GI50,XF498,> 100 µM (inactive)
same,GI50,SK-MEL-28,> 100 µM (inactive)
same,GI50,OVCAR-4,> 100 µM (inactive)
same,GI50,K562,> 100 µM (inactive)
Cc1ccc(C)c(NC(=O)CC2C(=O)Nc3ccccc3S2(=O)=O)c1 (centres undefined),GI50,Malme-3M,31.5 µM (inactive)
same,GI50,EKVX,31.2 µM (inactive)
same,GI50,DMS-273,28.1 µM (inactive)
same,GI50,OVCAR-5,> 100 µM (inactive)
same,GI50,SW-620,36.6 µM (inactive)
same,GI50,CCRF-CEM,> 100 µM (inactive)
same,GI50,SNB-78,68.4 µM (inactive)
same,GI50,UACC-257,> 100 µM (inactive)
same,GI50,TK-10,> 100 µM (inactive)
same,GI50,LOX IMVI,51.3 µM (inactive)
same,GI50,A549,> 100 µM (inactive)
same,GI50,786-0,22.8 µM (inactive)
same,GI50,HCT-116,52.2 µM (inactive)
same,GI50,CAKI-1,31.8 µM (inactive)
same,GI50,HCT-15,87.9 µM
same,GI50,UO-31,49.7 µM (inactive)
same,GI50,SK-MEL-5,27.7 µM (inactive)
same,GI50,RXF 393,27.9 µM (inactive)
same,GI50,HOP-92,38.8 µM (inactive)
same,GI50,MOLT-4,> 100 µM (inactive)
same,GI50,UACC-62,46.2 µM (inactive)
same,GI50,SNB-19,75 µM (inactive)
same,GI50,KM-20L2,> 100 µM (inactive)
same,GI50,U-251,43.3 µM (inactive)
same,GI50,HT-29,> 100 µM (inactive)
same,GI50,SF-295,> 100 µM (inactive)
same,GI50,DLD-1,> 100 µM (inactive)
same,GI50,OVCAR-3,42 µM (inactive)
same,GI50,SR,61 µM (inactive)
same,GI50,SF-539,25.5 µM (inactive)
same,GI50,NCI-H226,36.8 µM (inactive)
same,GI50,DMS-114,45.4 µM (inactive)
same,GI50,NCI-H460,> 100 µM (inactive)
same,GI50,RXF 631,> 100 µM (inactive)
same,GI50,SF-268,42.7 µM (inactive)
same,GI50,A498,30.2 µM (inactive)
same,GI50,OVCAR-8,37.2 µM (inactive)
same,GI50,SK-MEL-2,> 100 µM (inactive)
same,GI50,LXFL 529,> 100 µM (inactive)
same,GI50,NCI-H23,61.1 µM (inactive)
same,GI50,M14,44.5 µM (inactive)
same,GI50,SNB-75,21.5 µM (inactive)
same,GI50,SN12C,> 100 µM (inactive)
same,GI50,RPMI-8226,36.6 µM (inactive)
same,GI50,M19-MEL,63 µM (inactive)
same,GI50,IGROV-1,52.8 µM (inactive)
same,GI50,HL-60,49.9 µM (inactive)
same,GI50,HCC 2998,77.8 µM (inactive)
same,GI50,ACHN,48.2 µM (inactive)
same,GI50,XF498,27.8 µM (inactive)
same,GI50,SK-MEL-28,72.9 µM (inactive)
same,GI50,OVCAR-4,19 µM (inactive)
same,GI50,K562,53.1 µM (inactive)
